Counter-ions that a name gives are not always drawn.
molecular target: T1, Rec. human COMT (Homo sapiens, UniProt P21964); experiment: COMT-Fluorescence Assay; assay type: biochemical; details: COMT-fluorescence assay, rec. human COMT 25 nM, 4-Nitrocatechol-Alexa488 200 nM, SAM 500 nM; read-out: IC50
T1 sequence (P21964 1-271): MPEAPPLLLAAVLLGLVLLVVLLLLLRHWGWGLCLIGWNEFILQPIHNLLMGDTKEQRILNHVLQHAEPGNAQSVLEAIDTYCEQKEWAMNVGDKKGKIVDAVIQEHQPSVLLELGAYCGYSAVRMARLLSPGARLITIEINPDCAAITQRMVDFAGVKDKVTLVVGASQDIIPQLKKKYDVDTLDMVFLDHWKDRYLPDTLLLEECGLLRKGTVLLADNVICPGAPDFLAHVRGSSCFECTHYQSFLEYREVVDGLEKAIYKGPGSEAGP
Description: This intramolecular interaction is disturbed if the 4-Nitrocatechol is methylated. […] This increase of fluorescence intensity can be followed in a kinetic measurement. The slope in the linear range of the kinetic is calculated. An inhibitor compound decreases the slope.
Signal [rfu/min]=(rfu(end-point)−rfu(startpoint))/incubation_time_#2

| IC50 [nM] | Structure (SMILES) |
| --- | --- |
| 260 | Cc1ccc(-c2c(-c3ccc(F)cc3)c(Br)c(O)c3nc[nH]c(=O)c23)cc1 [Example 51, 7-bromo-6-(4-fluorophenyl)-8-hydroxy-5-p-tolylquinazolin-4(3H)-one] |
| 20 | Cn1nc(C(F)(F)F)cc1-c1cc(O)c2nc[nH]c(=O)c2c1 [Example 154, 8-Hydroxy-6-(2-methyl-5-trifluoromethyl-2H-pyrazol-3-yl)-3H-quinazolin-4-one] |
| 20 | Cc1cscc1-c1cc(O)c2nc[nH]c(=O)c2c1 [Example 164, 8-Hydroxy-6-(4-methylthiophen-3-yl)quinazolin-4(3H)-one] |
| 30 | O=c1[nH]cnc2c(O)cc(-c3ccc(F)cc3)c([N+](=O)[O-])c12 [Example 252, 6-(4-Fluoro-phenyl)-8-hydroxy-5-nitro-3H-quinazolin-4-one] |
| 30 | O=c1[nH]cnc2c(O)cc(-c3ccccc3COCCN3CCCC3)cc12 [Example 238, 8-Hydroxy-6-(2-((2-(pyrrolidin-1-yl)ethoxy)methyl)phenyl)quinazolin-4(3H)-one] |
| 10 | CCN(CC)C(=O)c1ccc(-c2c(-c3ccc(F)cc3)cc(O)c3nc[nH]c(=O)c23)cc1 [Example 55, N,N-Diethyl-4-(6-(4-fluorophenyl)-8-hydroxy-4-oxo-3,4-dihydroquinazolin-5-yl)benzamide] |
| 10 | COCc1cc(C(=O)N2CCN(C)CC2)ccc1-c1cc(O)c2nc[nH]c(=O)c2c1 [Example 231, 8-Hydroxy-6-[2-methoxymethyl-4-(4-methyl-piperazine-1-carbonyl)-phenyl]-3H-quinazolin-4-one; compound with formic acid] |
| 260 | O=c1[nH]cnc2c(O)cc(-c3cccc4cccnc34)cc12 [Example 167, 8-Hydroxy-6-(quinolin-8-yl)quinazolin-4(3H)-one] |
| 30 | O=c1[nH]cnc2c(O)cc(-c3cnc4ccccn34)cc12 [Example 86, 8-Hydroxy-6-(imidazo[1,2-a]pyridin-3-yl)quinazolin-4(3H)-one] |
| 20 | Cc1ccc(-c2cc(O)c3nc[nH]c(=O)c3c2)c(C)n1 [Example 202, 6-(2,6-Dimethyl-pyridin-3-yl)-8-hydroxy-3H-quinazolin-4-one] |
| 170 | O=c1[nH]cnc2c(O)c(Br)c(-c3ccc(F)cc3)c(Br)c12 [Example 34, 5,7-Dibromo-6-(4-fluorophenyl)-8-hydroxyquinazolin-4(3H)-one] |
| 20 | COCc1ccccc1-c1cc(O)c2nc[nH]c(=O)c2c1 [Example 220, 8-Hydroxy-6-(2-(methoxymethyl)phenyl)quinazolin-4(3H)-one] |
| 1200 | COc1cccc(Cc2cc(O)c3nc[nH]c(=O)c3c2)c1 [Example 15, 8-Hydroxy-6-(3-methoxybenzyl)quinazolin-4(3H)-one] |
| 30 | CN(C)CCOCc1ccccc1-c1cc(O)c2nc[nH]c(=O)c2c1 [Example 241, 6-(2-((2-(Dimethylamino)ethoxy)methyl)phenyl)-8-hydroxyquinazolin-4(3H)-one] |
| 10 | Cc1nc(-c2ccccc2)sc1-c1cc(O)c2nc[nH]c(=O)c2c1 [Example 203, 8-Hydroxy-6-(4-methyl-2-phenylthiazol-5-yl)quinazolin-4(3H)-one] |
| 30 | Cn1ncc2cc(-c3cc(O)c4nc[nH]c(=O)c4c3)ccc21 [Example 96, 8-Hydroxy-6-(1-methyl-1H-indazol-5-yl)quinazolin-4(3H)-one] |
| 1000 | CC(C)c1cc(O)c2nc[nH]c(=O)c2c1 [Example 13, 8-Hydroxy-6-isopropylquinazolin-4(3H)-one] |
| 4900 | COc1ccccc1Cc1cc(O)c2nc[nH]c(=O)c2c1 [Example 14, 8-Hydroxy-6-(2-methoxybenzyl)quinazolin-4(3H)-one] |
| 40 | O=c1[nH]cnc2c(O)cc(-c3cccc(N4CCCC4)n3)cc12 [Example 63, 8-Hydroxy-6-(6-(pyrrolidin-1-yl)pyridin-2-yl)quinazolin-4(3H)-one] |
| 30 | O=c1[nH]cnc2c(O)cc(-c3ccc(N4CCOCC4)nc3)cc12 [Example 182, 8-Hydroxy-6-(6-morpholinopyridin-3-yl)quinazolin-4(3H)-one] |
| 30 | CN1CCN(CCOCc2ccccc2-c2cc(O)c3nc[nH]c(=O)c3c2)CC1 [Example 240, 8-Hydroxy-6-(2-((2-(4-methylpiperazin-1-yl)ethoxy)methyl)phenyl)quinazolin-4(3H)-one] |
| 20 | O=c1[nH]cnc2c(O)cc(-c3cccc(CN4CCOCC4)c3)cc12 [Example 39, 8-Hydroxy-6-(3-(morpholinomethyl)phenyl)quinazolin-4(3H)-one 1:1 salt with trifluoroacetate] |
| 1040 | O=c1[nH]cnc2c(O)cc(C3CCOCC3)cc12 [Example 69, 8-Hydroxy-6-(tetrahydro-2H-pyran-4-yl)quinazolin-4(3H)-one 2,2,2-trifluoroacetate] |
| 50 | CS(=O)(=O)c1ccc(Cl)c(-c2cc(O)c3nc[nH]c(=O)c3c2)c1 [Example 48, 6-(2-Chloro-5-methanesulfonyl-phenyl)-8-hydroxy-3H-quinazolin-4-one] |
| 70 | CN(C)c1cccc(-c2cc(O)c3nc[nH]c(=O)c3c2)n1 [Example 183, 6-(6-(Dimethylamino)pyridin-2-yl)-8-hydroxyquinazolin-4(3H)-one] |
| 90 | Cc1ccc(C(=O)c2cc(O)c3nc[nH]c(=O)c3c2)s1 [Example 94, 8-Hydroxy-6-(5-methylthiophene-2-carbonyl)quinazolin-4(3H)-one] |
| 60 | O=c1[nH]cnc2c(O)cc(-c3ccccc3Oc3ccccc3)cc12 [Example 222, 8-Hydroxy-6-(2-phenoxyphenyl)quinazolin-4(3H)-one] |
| 4830 | Cc1ccc(C(O)c2cc(O)c3nc[nH]c(=O)c3c2)cc1 (stereo not drawn) [Example 65, 8-Hydroxy-6-(hydroxy(p-tolyl)methyl)quinazolin-4(3H)-one] |

| Structure (SMILES) | IC50 [nM] |
| --- | --- |
| CCCCOc1ccccc1-c1cc(O)c2nc[nH]c(=O)c2c1 [Example 228, 6-(2-Butoxyphenyl)-8-hydroxyquinazolin-4(3H)-one] | 50 |

same assay, conditions: IC50, COMT-fluorescence assay, rec. human COMT 25 nM, 4-Nitrocatechol-Alexa488 200 nM, SAM 500 nM

| IC50 [nM] | Structure (SMILES) |
| --- | --- |
| 40 | O=c1[nH]cnc2c(O)cc(-c3cc(F)c(F)c(F)c3)cc12 [Example 28, 8-Hydroxy-6-(3,4,5-trifluorophenyl)quinazolin-4(3H)-one] |
| 70 | CCOc1cc(Cl)ccc1-c1cc(O)c2nc[nH]c(=O)c2c1 [Example 215, 6-(4-Chloro-2-ethoxyphenyl)-8-hydroxyquinazolin-4(3H)-one] |
| 20 | CS(=O)(=O)c1cccc(-c2cc(O)c3nc[nH]c(=O)c3c2)c1 [Example 157, 8-Hydroxy-6-(3-(methylsulfonyl)phenyl)quinazolin-4(3H)-one] |
| 50 | CS(=O)(=O)Cc1ccccc1-c1cc(O)c2nc[nH]c(=O)c2c1 [Example 115, 8-Hydroxy-6-(2-(methylsulfonylmethyl)phenyl)quinazolin-4(3H)-one 2,2,2-trifluoroacetate] |
| 20 | O=c1[nH]cnc2c(O)cc(-c3ccc(F)cc3F)cc12 [Example 133, 6-(2,4-Difluorophenyl)-8-hydroxyquinazolin-4(3H)-one] |
| 10 | O=c1[nH]cnc2c(O)cc(-c3cccc(Cl)c3)cc12 [Example 149, 6-(3-Chloro-phenyl)-8-hydroxy-3H-quinazolin-4-one] |
| 10 | CC(C)Oc1cccc(-c2cc(O)c3nc[nH]c(=O)c3c2)c1 [Example 24, 8-Hydroxy-6-(3-isopropoxyphenyl)quinazolin-4(3H)-one] |

Reference: patent publication US9656971B2, “COMT inhibitors” (Hoffmann-La Roche Inc., priority 2012, dated 2017)
